From patent US10308617B2, “Triazole benzamide derivatives and the compositions and methods of treatment regarding the same” (An2H Discovery Limited, priority 2016, dated 2019)

Biological target: T1, Parkin ligase (Homo sapiens, UniProt O60260)
T1 sequence (O60260 1-465): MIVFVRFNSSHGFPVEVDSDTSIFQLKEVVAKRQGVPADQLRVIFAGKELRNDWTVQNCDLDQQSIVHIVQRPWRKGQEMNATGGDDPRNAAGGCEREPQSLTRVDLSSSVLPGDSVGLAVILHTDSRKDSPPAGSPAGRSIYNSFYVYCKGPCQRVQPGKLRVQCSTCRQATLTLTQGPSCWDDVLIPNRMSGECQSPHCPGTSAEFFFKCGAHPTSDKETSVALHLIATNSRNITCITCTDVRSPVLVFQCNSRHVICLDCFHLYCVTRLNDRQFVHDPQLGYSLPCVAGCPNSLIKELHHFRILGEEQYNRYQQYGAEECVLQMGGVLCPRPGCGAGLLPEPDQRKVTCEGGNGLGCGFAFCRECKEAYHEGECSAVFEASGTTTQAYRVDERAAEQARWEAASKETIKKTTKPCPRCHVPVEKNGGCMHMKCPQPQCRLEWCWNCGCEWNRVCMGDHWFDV
Assay: Activity-Based Probe Assay using an Ubiquitin vinyl sulfone probe (TR-FRET)
Type: biochemical
Details: not given
Protocol: An Ubiquitin vinyl sulfone probe can be used that irreversibly binds to the active site cysteine of Parkin ligase. Covalent attachment of the probe to the Parkin can be monitored by TR-FRET. Candidate activator compounds can be identified by increasing the activity of Parkin ligase due to an increase in TR-FRET signal. Screening for activating compounds can be distinguished from the controls as follows: • 100% activation signal=Heat activated Parkin+100 nM control activator in DMSO. • 0% activation signal=Heat activated Parkin+DMSO only. • Parkin activators can be identified by an increase of the 0% activation signal TR-FRET signal.
• Assay Plate: White 384 well plate (Corning 3572) • Enzyme: Parkin-His tagged 203 μM (10.5 mg/ml) • Probe: Ubiquitin vinyl-sulfone (HA-Ub-VS Boston Biochem U-212) • DMSO: DMSO (Sigma cat # D4540-100ML) • Reaction Buffer: 50 mM HEPES (pH 8.5), 150 mM NaCl, 0.01% Tween 20, 0.1% BSA • Detection Buffer: 50 mM HEPES (pH 8.5), 150 mM NaCl, 0.01% Tween 20, 0.1% BSA, 800 mM KF • Detection Reagent A: 2.6 nM Anti-6HIS-Eu cryptate and 40 nM Anti-HA-XL665 in detection buffer • Eu cryptate: Anti-6HIS-Eu cryptate (CisBio 61HISKLA) • XL665: Anti-HA-XL665 (CisBio 610HAXLA) Enzyme Reaction (15 min pre incubation Parkin with activator only) • Parkin: 40 nM • HA-Ub-VS Probe: 70 nM • Activator/DMSO: 2× Activator/2% DMSO • Reaction time: 60 minutes • Temperature: 22° C. • Total volume: 10 μl reaction Detection Reaction • Take 10 μl of Enzyme Reaction above and add 10 μl detection Reagent A under the following conditions: • Reaction time: 60 minutes • Temperature: 22° C. • Total volume: 20 μl
Assay procedure (Using HP D-300 compound dispenser and Bravo for the operation): • 1) Heat activate Parkin in reaction buffer (500 μl/1.5 ml tube: Eppendorf Thermomixer 5 minutes, 400 rpm at 58° C. and put on ice until needed). • 2) Load assay plate wells with 4.8 μl 84.5 nM Parkin in reaction buffer by use of Bravo. • 3) Deliver 0.2 μl 200× activator candidates in DMSO by use of HP D-300 compound dispenser. Highest 200× concentration=[…] and then twofold dilutions. • 4) Spin 1000 rpm, 2 minutes, at room temp. • 5) Incubate plate for 15 minutes at room temp. • 6) Add 5 μl 140 nM HA-Ub-VS Probe in reaction buffer by use of Bravo. • 7) Spin 1000 rpm, 2 minutes, at room temp. • 8) Incubate plate for 60 minutes at room temp. • 9) Add 10 μl 2.6 nM Anti-6HIS-Eu cryptate and 40 nM Anti-HA-XL665 in detection buffer. • 10) Spin 1000 rpm, 2 minutes, at room temp. • 11) Incubate plate for 60 minutes at room temp. • 12) Read plates on Perkin Elmer Envision instrument with the following parameters: • LANCE dual laser protocol loaded into the Envision® software • Top Mirror: LANCE/DELFIA Duel/Bias (Bar code 446) • Emission Filter: APC 665 EM (Bar code 205) • 2nd Emission Filter: Europium 615 EM (Bar code 203) • Read 655 nm (channel 1) and 615 nm (channel 2) wavelengths on Envision®
Data Analysis: The Data can be read in CSV files. There are two tables in those CSV files, which are the values of 655 nm (channel 1) and 615 nm (channel 2) wavelengths respectively. The data is converted to an HTRF Ratio=(Channel 1/Channel 2)*10,000
The average of all the 0 uM controls (DMSO only)=BKGD (Background—0% activation). Subtract BKGD from each HTRF Ratio value=HTRF-BKGD. The average of all the […] 100 nM control activator in DMSO controls=Max (100% activation). The following equation is then used to calculate % Activation for each well/candidate as follows: % Activation=(HTRF-BKGD/Max)*100.
Graphpad Prisim was used with Transform X values: X=Log(X) and nonlinear regression (dose-response-stimulation): Log(agonist) vs Response—variable slope (four parameters) with constrains set to Bottom=0 and Top=100.
The Activity-Based Probe Assay was performed with various compounds in Tables 1-3.

Parkin Ligase reaction with the Activity-based Ubiquitin vinyl sulfone probe	SMILES
increases	O=C(Nc1nc(NC(=O)c2ccccc2)n(-c2ccccc2)n1)c1ccccc1 [Compound A, N,N′-(1-phenyl-1H-1,2,4-triazole-3,5-diyl)dibenzamide]
increases	O=C(/C=C/c1ccccc1)Nc1nc(NC(=O)c2ccccc2)nn1-c1ccccc1 [Compound C, N-(5-cinnamamido-1-phenyl-1H-1,2,4-triazol-3-yl)benzamide]

Same assay, conditions: Parkin activation, HA-Ub-VS probe, heat activated Parkin; read-out: Probe Assay EC50 (μM) [Example 2]

SMILES	EC50 [µM]
O=C(Nc1nc(NC(=O)c2cc3ccccc3s2)n(-c2ccccc2)n1)c1ccccc1 [Compound A2]	50
O=C(Nc1nc(NC(=O)c2ccccc2)n(-c2ccccc2)n1)c1ccccc1 [Compound A, N,N′-(1-phenyl-1H-1,2,4-triazole-3,5-diyl)dibenzamide]	7
O=C(Nc1nc(Nc2nc(N3CCCC3)c3ccccc3n2)n(-c2ccccc2)n1)c1ccccc1 [Compound B1]	> 100
O=C(Nc1nc(NC(=O)c2ccc3ccccc3n2)n(-c2ccccc2)n1)c1ccccc1 [Compound B2]	4
CC(=O)Nc1nc(NC(C)=O)n(-c2ccccc2)n1 [Compound B]	> 100
Cc1ccccc1C(=O)Nc1nc(NC(=O)/C=C/c2ccccc2)n(-c2ccccc2)n1 [Compound C2]	4
O=C(Nc1nc(NC(=O)c2ccccc2)n(-c2ccc(I)cc2)n1)c1ccccc1 [Compound E, N-[5-benzamido-1-(4-iodophenyl)-1,2,4-triazol-3-yl]benzamide]	15.3
O=C(Nc1nc(Nc2cc(N3CCCC3)ncn2)n(-c2ccccc2)n1)c1ccccc1 [Compound G1]	> 100
O=C(Nc1nc(NC(=O)c2cccs2)nn1-c1ccccc1)c1ccccc1 [Compound G2]	2
Cc1ccccc1C(=O)Nc1nc(-c2ccccn2)nn1-c1ccc(OC(F)(F)F)cc1 [Compound H3]	3
Cc1ccccc1C(=O)Nc1nc(NC(=O)c2ccccc2)n(-c2ccccc2)n1 [Compound H]	> 100
O=C(Nc1nc(Nc2ccnc3ccccc23)n(-c2ccccc2)n1)c1ccccc1 [Compound I1]	> 100
O=C(Nc1nc(NC(=O)c2ccccc2)n(C2CCOCC2)n1)c1ccccc1 [Compound I2]	> 100
O=C(Nc1nc(NC(=O)c2ccccc2)n(-c2ccc3ncccc3c2)n1)c1ccccc1 [Compound J2]	6
CC(C)C(=O)Nc1nc(Nc2ncnc3ccccc23)n(-c2ccccc2)n1 [Compound K1]	9.2
Cc1ccccc1C(=O)Nc1nc(NC(=O)c2ccccc2)nn1-c1ccccc1 [Compound K, N-(5-benzamido-2-phenyl-1,2,4-triazol-3-yl)-2-methyl-benzamide]	10.8
C/C=C/C(=O)Nc1nc(Nc2ncnc3ccccc23)n(-c2ccccc2)n1 [Compound L1]	37
C=CC(=O)Nc1nc(NC(=O)c2ccccc2)nn1-c1ccccc1 [Compound L2]	> 100
O=C(Nc1nc(Nc2ncnc3ccccc23)n(-c2ccccc2)n1)c1ccccc1 [Compound L, N-[1-phenyl-5-(quinazolin-4-ylamino)-1,2,4-triazol-3-yl]benzamide]	1.8
O=C(Nc1nc(Nc2nc(O)c3ccccc3n2)n(-c2ccccc2)n1)c1ccccc1 [Compound O1]	12.8
O=C(Nc1nc(NC(=O)c2ccccc2)n(-c2cccc3cccnc23)n1)c1ccccc1 [Compound O2]	> 100
O=C(Nc1nc(NC(=O)c2ccccc2)n(-c2cccc3ncccc23)n1)c1ccccc1 [Compound P2]	> 100
Cc1ccccc1C(=O)Nc1nc(Nc2ncnc3ccccc23)n(-c2ccccc2)n1 [Compound R2]	4
Cc1ccc(-c2nc(NC(=O)c3ccccc3C)n(-c3ccccc3)n2)nc1 [Compound R3, 2-methyl-N-(3-(5-methylpyridin-2-yl)-1-phenyl-1H-1,2,4-triazol-5-yl)benzamide]	3
Cc1ccccc1C(=O)Nc1nc(-c2ccncc2)nn1-c1ccccc1 [Compound S2]	> 100
Cc1ccccc1C(=O)Nc1nc(-c2cccnc2)nn1-c1ccccc1 [Compound T2]	> 100

More lines, now with the values ahead:

EC50 [µM]	SMILES
> 100	O=C(Nc1nc(Nc2cc(N3CCCC3)nc3ccccc23)n(-c2ccccc2)n1)c1ccccc1 [Compound A1]
3.7	O=C(Nc1nc(Nc2ncnc3ccccc23)n(-c2ccccc2)n1)c1cccs1 [Compound C1]
15.1	O=C(/C=C/c1ccccc1)Nc1nc(NC(=O)c2ccccc2)nn1-c1ccccc1 [Compound C, N-(5-cinnamamido-1-phenyl-1H-1,2,4-triazol-3-yl)benzamide]
38.9	CN1CCC(C(=O)Nc2nc(Nc3ncnc4ccccc34)n(-c3ccccc3)n2)CC1 [Compound D1]
89	O=C(Nc1nc(NC(=O)c2ccccc2)n(-c2ccc3ccccc3n2)n1)c1ccccc1 [Compound D2]
> 100	O=C(Nc1nc(Nc2nc(O)nc3ccccc23)n(-c2ccccc2)n1)c1ccccc1 [Compound E1]
6	O=C(Nc1nc(NC(=O)c2ccccc2)n(-c2ccc3c(c2)OCCO3)n1)c1ccccc1 [Compound E2]
> 100	CCN(CC)c1cc(Nc2nc(NC(=O)c3ccccc3)nn2-c2ccccc2)ncn1 [Compound F1]
12	COc1ccc(-n2nc(NC(=O)c3ccccc3)nc2NC(=O)c2ccccc2)cc1 [Compound F2]
6.7	Cc1ccccc1C(=O)Nc1nc(NC(=O)c2ccccc2C)n(-c2ccccc2)n1 [Compound F, 2-methyl-N-[5-[(2-methylbenzoyl)amino]-1-phenyl-1,2,4-triazol-3-yl]benzamide]
> 100	O=C(Nc1nc(Nc2ccncn2)n(-c2ccccc2)n1)c1ccccc1 [Compound H1]
> 100	Nc1nc(Nc2nc(NC(=O)c3ccccc3)nn2-c2ccccc2)c2ccccc2n1 [Compound J1]
6	Cc1ccccc1C(=O)Nc1nc(NC(=O)c2cccs2)nn1-c1ccccc1 [Compound K2]
11.9	C=C(C)C(=O)Nc1nc(Nc2ncnc3ccccc23)n(-c2ccccc2)n1 [Compound M1]
> 100	O=C(Nc1nc(NC(=O)c2nc3ccccc3s2)n(-c2ccccc2)n1)c1ccccc1 [Compound M2]
> 100	Nc1nc(Nc2nc(NC(=O)c3ccccc3)nn2-c2ccccc2)nc2ccccc12 [Compound N1]
26	Cc1ccccc1C(=O)Nc1nc(-c2ccccn2)nn1-c1ccccc1 [Compound Q2]
4	Cc1ccccc1C(=O)Nc1nc(NC(=O)c2ccccc2C)n(-c2ccc(Cl)cc2)n1 [Compound Q3]
3	Cc1ccccc1C(=O)Nc1nc(-c2ncccc2C)nn1-c1ccccc1 [Compound S3, 2-methyl-N-(3-(3-methylpyridin-2-yl)-1-phenyl-1H-1,2,4-triazol-5-yl)benzamide]
25.9	O=C(/C=C/c1ccccc1)Nc1nc(NC(=O)c2ccccc2)nn1-c1ccccn1 [Compound U1]
